From PMC12951562, “SH2scan: Mapping SH2 Domain-Ligand Binding Selectivity for Inhibitors and Degraders” (Journal of Medicinal Chemistry, 2026)
Where “and” joins values, the source holds several entries; their conditions need not be identical. Equal values may be shown once. Read-outs that look alike come from different tables or passages of the source. Non-standard residues stand in square brackets, D forms with d. Residues, ends and D or L forms follow the SMILES beside them. pY = N[C@@H](Cc1ccc(OP(=O)(O)O)cc1)C(=O)O

What was measured:
Assay in all cases: biochemical
Type in all cases: binding
SRC = biological target: T1, SRC (Homo sapiens, UniProt P12931); details: for remaining activity at 10 µM: read-out: percent of DMSO vehicle control
T1 construct: made in house; host or cells: HEK293 (transient transfection), unpurified extract
T1 sequence (P12931 whole entry): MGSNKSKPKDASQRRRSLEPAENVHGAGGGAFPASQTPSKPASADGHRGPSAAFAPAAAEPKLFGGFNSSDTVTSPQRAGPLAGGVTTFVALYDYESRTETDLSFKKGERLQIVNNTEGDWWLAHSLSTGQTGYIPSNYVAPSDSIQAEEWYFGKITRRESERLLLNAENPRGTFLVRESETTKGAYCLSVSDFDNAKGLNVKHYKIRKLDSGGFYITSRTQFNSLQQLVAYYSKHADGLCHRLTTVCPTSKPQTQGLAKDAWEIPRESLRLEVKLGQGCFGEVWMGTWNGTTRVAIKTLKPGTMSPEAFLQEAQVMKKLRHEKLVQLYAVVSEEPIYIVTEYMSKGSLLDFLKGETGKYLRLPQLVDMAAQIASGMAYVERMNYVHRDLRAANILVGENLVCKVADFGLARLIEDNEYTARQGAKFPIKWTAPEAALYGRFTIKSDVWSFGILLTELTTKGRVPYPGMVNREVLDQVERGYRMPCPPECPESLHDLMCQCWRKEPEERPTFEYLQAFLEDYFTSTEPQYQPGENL

SHC1 = biological target: T2, SHC1 (Homo sapiens, UniProt P29353); details: for remaining activity at 10 µM: read-out: percent of DMSO vehicle control
T2 construct: made in house; host or cells: HEK293 (transient transfection), unpurified extract
T2 sequence (P29353 1-583): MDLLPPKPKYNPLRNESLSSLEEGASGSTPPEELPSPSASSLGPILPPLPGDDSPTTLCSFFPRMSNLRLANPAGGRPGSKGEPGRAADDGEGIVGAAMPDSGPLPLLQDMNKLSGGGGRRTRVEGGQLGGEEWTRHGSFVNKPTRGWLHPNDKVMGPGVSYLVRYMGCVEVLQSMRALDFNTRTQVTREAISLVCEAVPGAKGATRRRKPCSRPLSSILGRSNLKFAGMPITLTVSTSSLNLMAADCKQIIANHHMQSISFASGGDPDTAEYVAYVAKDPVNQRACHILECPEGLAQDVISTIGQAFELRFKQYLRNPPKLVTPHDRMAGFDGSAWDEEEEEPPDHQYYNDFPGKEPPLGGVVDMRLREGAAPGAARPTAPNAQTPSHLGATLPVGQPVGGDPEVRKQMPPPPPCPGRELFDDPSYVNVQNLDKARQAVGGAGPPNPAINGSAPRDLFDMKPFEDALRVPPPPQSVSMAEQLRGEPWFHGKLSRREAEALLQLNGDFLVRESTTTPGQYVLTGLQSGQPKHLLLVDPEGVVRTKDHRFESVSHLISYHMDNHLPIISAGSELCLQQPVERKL

STAP1 = biological target: T3, STAP1 (Homo sapiens, UniProt Q9ULZ2); details: for remaining activity at 10 µM: read-out: percent of DMSO vehicle control
T3 construct: made in house; host or cells: HEK293 (transient transfection), unpurified extract
T3 sequence (Q9ULZ2 1-295): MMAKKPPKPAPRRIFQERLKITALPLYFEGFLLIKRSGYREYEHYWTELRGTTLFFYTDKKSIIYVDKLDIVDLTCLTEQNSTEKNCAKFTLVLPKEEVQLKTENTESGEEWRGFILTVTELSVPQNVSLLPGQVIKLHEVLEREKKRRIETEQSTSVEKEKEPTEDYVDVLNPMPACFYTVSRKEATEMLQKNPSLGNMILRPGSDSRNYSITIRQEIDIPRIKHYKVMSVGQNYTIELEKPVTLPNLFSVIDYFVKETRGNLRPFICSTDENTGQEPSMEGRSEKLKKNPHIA

SOCS7 = biological target: T4, SOCS7 (Homo sapiens, UniProt O14512); details: for remaining activity at 10 µM: read-out: percent of DMSO vehicle control
T4 construct: made in house; host or cells: HEK293 (transient transfection), unpurified extract
T4 sequence (O14512 1-581): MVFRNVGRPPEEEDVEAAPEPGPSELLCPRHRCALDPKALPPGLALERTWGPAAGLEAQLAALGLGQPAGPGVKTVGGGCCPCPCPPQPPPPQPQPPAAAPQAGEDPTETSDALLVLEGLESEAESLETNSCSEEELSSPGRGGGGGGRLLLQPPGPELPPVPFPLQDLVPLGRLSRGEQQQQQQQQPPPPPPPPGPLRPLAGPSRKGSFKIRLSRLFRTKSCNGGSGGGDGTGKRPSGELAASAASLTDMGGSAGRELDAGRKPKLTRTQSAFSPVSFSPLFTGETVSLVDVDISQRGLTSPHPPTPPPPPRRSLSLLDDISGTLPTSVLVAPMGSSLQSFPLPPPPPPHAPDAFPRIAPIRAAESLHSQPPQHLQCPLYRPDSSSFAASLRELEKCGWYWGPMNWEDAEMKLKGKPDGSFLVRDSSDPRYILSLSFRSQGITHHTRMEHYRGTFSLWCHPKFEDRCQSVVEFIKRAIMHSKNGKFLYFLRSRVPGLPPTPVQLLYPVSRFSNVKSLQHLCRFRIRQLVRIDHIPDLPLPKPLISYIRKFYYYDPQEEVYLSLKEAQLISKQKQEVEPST

NCK2 = biological target: T5, NCK2 (Homo sapiens, UniProt O43639); details: for remaining activity at 10 µM: read-out: percent of DMSO vehicle control
T5 construct: the DNA-tagged SH2 domain concentrations used in this study were <0.1 nM; made in house; host or cells: HEK293 (transient transfection, unpurified extract)
T5 sequence (O43639 285-380 limits assumed): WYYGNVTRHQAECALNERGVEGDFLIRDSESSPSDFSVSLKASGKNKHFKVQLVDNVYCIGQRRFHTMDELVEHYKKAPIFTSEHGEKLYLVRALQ

CSK = biological target: T6, CSK (Homo sapiens, UniProt P41240); details: primary screen, 10 μM
T6 construct: the DNA-tagged SH2 domain concentrations used in this study were <0.1 nM; made in house; host or cells: HEK293 (transient transfection; unpurified extract)
T6 sequence (P41240 82-171 limits assumed): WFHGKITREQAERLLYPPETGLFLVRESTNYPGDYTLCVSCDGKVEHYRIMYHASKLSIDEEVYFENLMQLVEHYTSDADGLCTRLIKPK

RASA1(SH2dom.C-term.) = biological target: T7, RASA1(SH2dom.C-term.) (Homo sapiens, UniProt P20936); details: for remaining activity at 10 µM: read-out: percent of DMSO vehicle control
T7 construct: SH2dom.C-term. denotes SH2 domain closest to C-terminus of protein; made in house; host or cells: HEK293 (transient transfection, unpurified extract)
T7 sequence (P20936 351-441 limits assumed): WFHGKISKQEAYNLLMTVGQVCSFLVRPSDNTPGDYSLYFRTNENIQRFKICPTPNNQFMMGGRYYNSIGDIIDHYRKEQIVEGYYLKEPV

PLCG2(SH2dom.C-term.) = biological target: T8, PLCG2(SH2dom.C-term.) (Homo sapiens, UniProt P16885); details: for remaining activity at 10 µM: read-out: percent of DMSO vehicle control
T8 construct: SH2dom.C-term. denotes SH2 domain closest to C-terminus of protein; made in house; host or cells: HEK293 (transient transfection, unpurified extract)
T8 sequence (P16885 646-735 limits assumed): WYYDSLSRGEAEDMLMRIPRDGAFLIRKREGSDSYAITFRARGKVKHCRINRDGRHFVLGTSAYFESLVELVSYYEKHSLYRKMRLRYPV

STAT2 = biological target: T9, STAT2 (Homo sapiens, UniProt P52630)
T9 construct: made in house; host or cells: HEK293 (transient transfection), unpurified extract
T9 sequence (P52630 whole entry): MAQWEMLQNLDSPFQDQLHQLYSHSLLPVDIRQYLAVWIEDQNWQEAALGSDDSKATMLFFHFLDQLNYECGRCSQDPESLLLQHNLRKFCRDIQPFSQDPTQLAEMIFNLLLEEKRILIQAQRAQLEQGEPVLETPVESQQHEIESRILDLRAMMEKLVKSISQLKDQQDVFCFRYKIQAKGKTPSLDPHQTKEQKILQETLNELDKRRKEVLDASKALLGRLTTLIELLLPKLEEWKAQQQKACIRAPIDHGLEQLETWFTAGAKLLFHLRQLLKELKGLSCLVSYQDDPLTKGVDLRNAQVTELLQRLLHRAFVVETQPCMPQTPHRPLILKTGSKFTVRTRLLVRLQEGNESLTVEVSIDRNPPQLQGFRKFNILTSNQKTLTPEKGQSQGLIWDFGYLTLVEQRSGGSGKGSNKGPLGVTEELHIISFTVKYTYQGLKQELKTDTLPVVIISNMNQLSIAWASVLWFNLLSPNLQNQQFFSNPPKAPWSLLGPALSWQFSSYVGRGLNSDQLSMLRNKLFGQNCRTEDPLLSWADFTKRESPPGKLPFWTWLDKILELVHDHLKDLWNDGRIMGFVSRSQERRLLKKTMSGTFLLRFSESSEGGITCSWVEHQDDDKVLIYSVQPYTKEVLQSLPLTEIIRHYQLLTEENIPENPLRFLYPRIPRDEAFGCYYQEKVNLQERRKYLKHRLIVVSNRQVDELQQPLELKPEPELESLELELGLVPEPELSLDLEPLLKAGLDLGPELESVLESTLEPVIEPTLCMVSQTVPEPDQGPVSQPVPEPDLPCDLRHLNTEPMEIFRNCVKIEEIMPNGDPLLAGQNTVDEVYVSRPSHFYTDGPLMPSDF

CRK = biological target: T10, CRK (Homo sapiens, UniProt P46108)
T10 construct: the DNA-tagged SH2 domain concentrations used in this study were <0.1 nM; made in house; host or cells: HEK293 (transient transfection; unpurified extract)
T10 sequence (P46108 13-118 limits assumed): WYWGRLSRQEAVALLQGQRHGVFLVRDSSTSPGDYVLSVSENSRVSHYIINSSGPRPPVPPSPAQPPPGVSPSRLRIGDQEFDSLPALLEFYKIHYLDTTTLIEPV

GRB7 = biological target: T11, GRB7 (Homo sapiens, UniProt Q14451)
T11 construct: the DNA-tagged SH2 domain concentrations used in this study were <0.1 nM; made in house; host or cells: HEK293 (transient transfection; unpurified extract)
T11 sequence (Q14451 431-527 limits assumed): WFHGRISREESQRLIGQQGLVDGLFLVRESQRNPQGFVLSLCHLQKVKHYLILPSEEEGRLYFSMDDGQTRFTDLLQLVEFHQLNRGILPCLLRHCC

PLCG1(SH2dom.N-term.) = biological target: T12, PLCG1(SH2dom.N-term.) (Homo sapiens, UniProt P19174); details: for remaining activity at 10 µM: read-out: percent of DMSO vehicle control
T12 construct: SH2dom.N-term. denotes SH2 domain closest to N-terminus of protein; made in house; host or cells: HEK293 (transient transfection, unpurified extract)
T12 sequence (P19174 550-657 limits assumed): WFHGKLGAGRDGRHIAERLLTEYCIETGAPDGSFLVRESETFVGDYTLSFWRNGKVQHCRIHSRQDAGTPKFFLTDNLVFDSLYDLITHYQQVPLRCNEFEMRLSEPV

[1] = read-out: percent of DMSO vehicle control
[2] = primary screen, 10 μM, read-out: percent of DMSO vehicle control

SMILES: CC[C@H](C)[C@H](NC(=O)[C@H](CCC(=O)O)NC(=O)[C@H](CCC(=O)O)NC(=O)[C@H](Cc1ccc(OP(=O)(O)O)cc1)NC(C)=O)C(=O)N[C@@H](CCC(=O)O)C(N)=O [Ac-pYEEIE-NH2] (Ac-[pY]EEIE-NH2)
- percent of DMSO vehicle control (SRC; primary screen, 10 μM): 68.6±4.6%
- percent of DMSO vehicle control (SHC1; primary screen, 10 μM): 105.0%
- percent of DMSO vehicle control (STAP1; primary screen, 10 μM): 101.0%
- percent of DMSO vehicle control (SOCS7; primary screen, 10 μM): 110.9%
- percent of DMSO vehicle control (NCK2; primary screen, 10 μM): 74.9%
- percent of DMSO vehicle control (CSK): 106.4%
- percent of DMSO vehicle control (RASA1(SH2dom.C-term.); primary screen, 10 μM): 119.3%
- percent of DMSO vehicle control (PLCG2(SH2dom.C-term.); primary screen, 10 μM): 90.9%
- percent of DMSO vehicle control (STAT2; primary screen, 10 μM): 53.6±1.3%
- percent of DMSO vehicle control (CRK; primary screen, 10 μM): 114.0%
- percent of DMSO vehicle control (GRB7; primary screen, 10 μM): 123.8%
- percent of DMSO vehicle control (PLCG1(SH2dom.N-term.); primary screen, 10 μM): 42.1%

SMILES: NC(=O)CC[C@H](NC(=O)[C@@H]1CC[C@@H]2CCN(C(=O)CCCCCC#Cc3cccc4c3CN(C3CCC(=O)NC3=O)C4=O)C[C@H](NC(=O)c3cc4cc(C(F)(F)P(=O)(O)O)ccc4[nH]3)C(=O)N21)C(=O)NC(c1ccccc1)c1ccccc1 (some centres unmarked) [SD-36]
- remaining activity at 10 µM (SRC): 81.4 ± 1.5%
- remaining activity at 10 µM (SHC1): 62 ± 8.8%
- remaining activity at 10 µM (STAP1): 79.9 ± 5.8%
- remaining activity at 10 µM (SOCS7): 271%
- remaining activity at 10 µM (NCK2): 80 ± 38.4%
- percent of DMSO vehicle control (CSK): 97.3±14.8%
- remaining activity at 10 µM (RASA1(SH2dom.C-term.)): 86.6 ± 9.6%
- remaining activity at 10 µM (PLCG2(SH2dom.C-term.)): 86.3 ± 12.4%
- Kd (STAT2; dose-response): 450 nM and 454 nM
- percent of DMSO vehicle control at 10 µM (STAT2; [1]): 0.1 ± 1.3%
- percent of DMSO vehicle control at 10 µM (CRK; [1]): 77 ± 13.9%
- percent of DMSO vehicle control at 10 µM (GRB7; [1]): 66.9 ± 4.6%
- remaining activity at 10 µM (PLCG1(SH2dom.N-term.)): 91.3 ± 4.5%

SMILES: CC(C)(C)[C@H](NC(=O)/C=C/c1ccc(OP(=O)(O)O)cc1)C(=O)N1CCC[C@H]1C(=O)N(c1ccccc1)c1ccc(I)cc1 [STAT6-IN-3]
- remaining activity at 10 µM (SRC; primary screen, 10 μM): 67 ± 21%
- remaining activity at 10 µM (SHC1; primary screen, 10 μM): 62.5 ± 13.9%
- remaining activity at 10 µM (STAP1; primary screen, 10 μM): 76.9 ± 9.2%
- remaining activity at 10 µM (SOCS7; primary screen, 10 μM): 50.9 ± 16.4%
- remaining activity at 10 µM (NCK2; primary screen, 10 μM): 102 ± 68.4%
- percent of DMSO vehicle control (CSK): 65.2±5.7%
- remaining activity at 10 µM (RASA1(SH2dom.C-term.); primary screen, 10 μM): 123 ± 14.3%
- remaining activity at 10 µM (PLCG2(SH2dom.C-term.); primary screen, 10 μM): 75.3 ± 10%
- Kd (STAT2; dose-response, read-out: KD): 510 ± 83 nM
- remaining activity at 10 µM (STAT2; [2]): 60.3 ± 12.5%
- remaining activity at 10 µM (CRK; [2]): 80.4 ± 9.5%
- remaining activity at 10 µM (GRB7; [2]): 81.2 ± 4.6%
- Kd (PLCG1(SH2dom.N-term.); dose-response, read-out: KD): 3700 ± 330 nM
- remaining activity at 10 µM (PLCG1(SH2dom.N-term.); primary screen, 10 μM): 32.7 ± 14.4%

SMILES: CC(=O)N[C@@H](Cc1ccc(CP(=O)(O)O)cc1)C(=O)NC1(C(=O)N[C@@H](CC(N)=O)C(=O)NCCCc2c(O)ccc3ccccc23)CCCCC1 [CGP78850]
- remaining activity at 10 µM (SRC): 99.2 ± 4.1%
- remaining activity at 10 µM (SHC1): 49.8 ± 6.2%
- remaining activity at 10 µM (STAP1): 113 ± 2.6%
- remaining activity at 10 µM (SOCS7): 126 ± 4.2%
- remaining activity at 10 µM (NCK2): 111 ± 23.7%
- percent of DMSO vehicle control (CSK): 119.6±4.5%
- remaining activity at 10 µM (RASA1(SH2dom.C-term.)): 131 ± 42.7%
- remaining activity at 10 µM (PLCG2(SH2dom.C-term.)): 104 ± 2.7%
- KD (STAT2; dose-response): No Hit
- percent of DMSO vehicle control at 10 µM (STAT2; [1]): 27.3%
- percent of DMSO vehicle control at 10 µM (CRK; [1]): 88.3 ± 0.9%
- Kd (GRB7): 5.2 nM
- percent of DMSO vehicle control at 10 µM (GRB7; [1]): 0%
- remaining activity at 10 µM (PLCG1(SH2dom.N-term.)): 109 ± 14.6%
